In patent publication US20220226338A1, “Methods of Treating Cancer Using CHK1 Inhibitors” (Sierra Oncology, Inc., priority 2019, published 2022):
Read-outs that look alike come from different tables or passages of the source.

Assays:
[1] = tested on: Chk1 autophosphorylation; experiment: In vitro Chk1 inhibition after genotoxic chemotherapy (autophosphorylation, checkpoint arrest, cytotoxicity potentiation); type: cell-based
[2] = SRA737 plasma and tumor concentrations in HT29 xenograft model; type: in vivo, mice; conditions: mouse, plasma, oral, read-out: plasma concentration with anti-tumor activity in preclinical efficacy models
Method: The effect of SRA737 on Gemcitabine induced CHK1 S296 autophosphorylation was assessed as described in Walton et al. (Oncotarget. 2016 January 19; 7(3): 2329-2342), herein incorporated by reference for all it teaches. Briefly, mice bearing HT29 tumor xenografts were administered (i) vehicle control or (ii) gemcitabine (100 mg/kg in saline, IV) or (iii) a combination of SRA737 (12.5, 25, 50 or 100 mg/kg in DTPW, oral) and gemcitabine (100 mg/kg) with SRA737 administered 24 hours following gemcitabine administration (n=3 per time point per treatment). […] Exposure in the tumor was greater than 10-fold higher than in plasma. The circulating plasma concentration at this 24-hour timepoint corresponded to a free drug concentration of approximately 6 nM (2 ng/mL) based on plasma protein binding in mice of 94%.

[3] = Single dose PK, dog; type: in vivo; conditions: Dog oral 5 mg/kg single dose
Text: (§1) Several studies have been conducted to evaluate the PK properties of SRA737, such as the absorption (in vitro permeability assays and in vivo PK following IV and oral administration), distribution (in vivo tissue distribution and in vitro plasma protein binding) and metabolism (in vitro hepatocyte and CYP inhibition and induction studies) of SRA737.
(§2) The PK of SRA737 have been determined in the mouse, rat, dog and monkey following oral and IV administration (Table 3). […] An acceptable terminal elimination t1/2 was also observed in each species. […] The plasma protein binding of SRA737 at 1 and 10 μM was examined in mouse, minipig, monkey and human plasma using ultracentrifugation and in dog plasma (10 μM) using rapid equilibrium dialysis.

[4] = Single dose PK, monkey; type: in vivo
Text: as §1, §2

[5] = tested on: plasma protein; experiment: Plasma protein binding, ultracentrifugation, human plasma; type: in vitro ADME
Method: as §2

[6] = tested on: plasma protein; experiment: Plasma protein binding, rapid equilibrium dialysis, dog plasma; type: in vitro ADME; conditions: 10 μM
Method: as §2

[7] = tested on: plasma protein; experiment: Plasma protein binding, ultracentrifugation, monkey plasma; type: in vitro ADME
Method: as §2

[8] = Parallel artificial membrane permeability assay (PAMPA); type: in vitro ADME
Method: The membrane permeability of SRA737 was assessed in the parallel artificial membrane permeability assay (PAMPA) and Caco-2 assays. Permeability in the PAMPA assay was classified as low.

[9] = tested on: cryopreserved hepatocytes; experiment: Stability in cryopreserved rat hepatocytes; type: in vitro ADME; conditions: 10 μM, after 4 hours of incubation
Method: The formation of SRA737-related metabolites was determined in cryopreserved hepatocytes from human, mouse, rat, dog, minipig and monkey samples after incubation with SRA737 at a nominal concentration of 10 μM for up to 4 hours. […] In the human hepatocyte preparation, approximately 67% of the parent remained after 4 hours of incubation compared to 75% and 7% in the rat and minipig preparations, respectively. Eight human SRA737 metabolites were observed. All SRA737 metabolites formed by human hepatocytes were also formed by monkey hepatocytes. Six metabolites were present at equal or greater abundance in the monkey.

[10] = Excretion in urine and feces, rats; type: in vivo; conditions: rat, over 24 hours
Method: The excretion of SRA737 has been studied in mice and rats administered SRA737 at either 5 mg/kg IV or 10 mg/kg orally. Urine and feces were collected for a 24-hour period after dosing. In mice, renal excretion of intact SRA737 was consistently low (less than 10% of dose) after both oral and IV administration. Following IV administration of SRA737, less than 8% of the dose was recovered as intact drug in the feces while after oral administration this figure was less than 3%. Excretion of intact SRA737 was lower in the rat than in the mouse with <1% of dose excreted renally over 24 hours and less than 1.5% of dose excreted into the feces over 24 hours.

[11] = target: T1, Chk1 (Homo sapiens, UniProt O14757); conditions: previously found; Walton et al. Oncotarget 2016; cited from earlier work
T1 sequence (O14757 1-476): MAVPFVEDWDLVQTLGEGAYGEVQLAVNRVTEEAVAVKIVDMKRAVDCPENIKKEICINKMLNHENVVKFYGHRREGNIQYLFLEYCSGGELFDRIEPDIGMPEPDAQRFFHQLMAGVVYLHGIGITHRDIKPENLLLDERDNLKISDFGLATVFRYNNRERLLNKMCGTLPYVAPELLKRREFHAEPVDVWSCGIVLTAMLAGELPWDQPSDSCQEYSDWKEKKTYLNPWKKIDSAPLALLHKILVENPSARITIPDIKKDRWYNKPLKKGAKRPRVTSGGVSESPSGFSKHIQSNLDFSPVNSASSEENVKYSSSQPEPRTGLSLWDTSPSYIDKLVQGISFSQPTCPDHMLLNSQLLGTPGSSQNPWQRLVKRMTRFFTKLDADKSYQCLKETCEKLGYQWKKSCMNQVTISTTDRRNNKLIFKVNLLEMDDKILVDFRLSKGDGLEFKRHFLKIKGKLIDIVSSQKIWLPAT

## N#Cc1cnc(Nc2cc(NCC3CNCCO3)c(C(F)(F)F)cn2)cn1 (centres unmarked) [SRA737, 5-[[4-[[morpholin-2-yl]methylamino]-5-(trifluoromethyl)-2-pyridyl]amino]pyrazine-2-carbonitrile]
[1]
  inhibition of genotoxicity-induced checkpoint arrest: dose-dependent inhibition
  potentiation of the cytotoxicity of genotoxic chemotherapeutic agents and targeted agents: dose-dependent potentiation
[1]; data not shown
  inhibition of genotoxic chemotherapy-induced Chk1 autophosphorylation: potently inhibited
[2]; equivalent of 100 nM
  concentration at 24 h: ~37.9 ng/mL
[2]; mice, sustained for 24 hours, PK/PD benchmark
  concentration at 24 h: 100 nM
[3]
  Foral: 86%
[4]; Monkey oral 2 mg/kg single dose
  Foral: 90%
[4]; Monkey oral 10 mg/kg single dose
  Foral: 104%
[5]; 1 μM
  Percentage Bound: 87.7%
  Percentage Free: 12.4%
[5]; 10 μM
  Percentage Bound: 87.2%
  Percentage Free: 12.8%
[6]
  Percentage Bound: 68.8%
  Percentage Free: 31.2%
[7]; 1 μM
  Percentage Bound: 88.8%
  Percentage Free: 11.2%
[7]; 10 μM
  Percentage Bound: 85.8%
  Percentage Free: 14.2%
[8]
  permeability in the PAMPA assay: low
[9]
  parent remaining: 75%
[10]
  intact SRA737 excreted into the feces: less than 1.5 % of dose
  intact SRA737 excreted renally: < 1 % of dose
[11]
  inhibitor of Chk1: potent and selective inhibitor of Chk1 with limited off-target activity against other kinases
